Reference: patent US9492428B2, “Compounds, compositions, pharmaceutical compositions, and methods of use” (University of Louisville Research Foundation, Inc., priority 2011, dated 2016)

Key:
DU145 cells [1] = experiment: Immunoblotting of apoptotic markers (cleaved caspase-3, PARP-1) in DU145; assay type: cell-based, human
Description: (§1) FIG. 13. Assays to detect apoptosis in DU145 cells. Prostate cancer cells were left untreated (−) or treated with 10 μM compound I-1 or with vehicle (DMSO) for the time indicated in the figure. (A) After treatment, cells were harvest by trypsinization, washed with PBS, and then incubated with FITC-conjugated Annexin V and propidium iodide. Flow cytometric analysis was performed. The histogram for each sample was split into four quadrants to indicate: viable cells (lower left quadrant), apoptotic cells (lower right quadrant), necrotic cells (upper left quadrant), and necrotic/late apoptotic cells (upper right quadrant). (B) After treatment, cells were lysed and total lysates were analyzed for cellular apoptotic markers by immunoblotting using anti-[…] or antibodies specific to the activated form of Caspase-3 (cleaved Caspase-3). Anti-GAPDH-1 antibody was used as loading control. (C) Some cells were harvested by trypsinization, washed with PBS, and total DNA was extracted then analyzed on a 1.8% agarose gel. M indicates DNA size marker (base pairs).
Cell Culture and Treatment. All cells were obtained from ATCC and were grown in a humidified incubator at 37° C. with 5% CO2. DU145 (hormone-refractory prostate cancer) cells were grown in DMEM and PC3 (hormone-refractory prostate cancer) were grown in F-12K medium supplemented with 10% fetal bovine serum (FBS; Life Technologies), 62.5 μg/mL penicillin and 100 μg/mL streptomycin (Hyclone Laboratories, Logan, Utah). Cells (1×10^6) in fresh complete culture medium were plated on 10 cm diameter tissue dishes for 18 h. Cells for biochemical analyses cells were lysed in lysis buffer (150 mM NaCl, 2 mM EDTA, 50 mM Tris-HCl, 0.25% deoxycholic acid, 1% octylphenoxypolyethoxyethanol (IGEPAL CA-630), pH 7.5) containing protease and phosphatase inhibitor cocktails (Calbiochem, Billerica, Mass.) for 10 min at 4° C. and then cleared by centrifugation at 16,000 g for 10 min at 4° C. All protein concentrations were determined using the bicinchoninic acid (BCA) protein assay (Pierce, Rockford, Ill.).
Immunoblotting. Samples were resolved by 4-20% precast linear gradient SDS-Tris polyacrylamide gel electrophoresis (Bio-rad Bio-Rad Laboratories, Hercules, Calif.) and then electrotransferred onto polyvinylidine fluoride membranes (Millipore, Bedford, Mass.) in Tris-glycine buffer containing 20% methanol. […] Antibody-reactive proteins were detected using a chemiluminescence substrate (SuperSignal; Pierce, Rockford, Ill.) according to the manufacturer's instructions. […]
Next, to further confirm that compound I-1 induces apoptosis in prostate cancer cells, we evaluated key apoptotic molecular markers. […]

DU145 cells [2] = experiment: Annexin V-FITC / propidium iodide flow cytometry (apoptosis); assay type: cell-based, human
Description: FIG. 9. Effect of compound I-1 at 5 μM on cell cycle and apoptosis. Cells were then harvested by trypsinization. (A) For flow cytometric analysis of cell cycle parameters, cells were fixed, and stained with propidium iodide. Each histogram indicates the percent of cells in G1, S, and G2/M phases of the cell cycle. Data were gated to exclude apoptotic cells for these calculations. (B) For apoptosis detection, cells were incubated with FITC-conjugated Annexin V and propidium iodide. Flow cytometric analysis was performed and the histogram for each sample was split into four quadrants to indicate: viable cells (lower left quadrant), apoptotic cells (lower right quadrant), necrotic cells (upper left quadrant), and necrotic/late apoptotic cells (upper right quadrant).
as §1
Flow cytometric assays of cell cycle and cell death. Cells in fresh complete medium were plated (2×10^5 per well) into six-well plates for 18 h. After complete adhesion, cells were treated as indicated in the figures and harvested by trypsinization. For cell cycle distribution, cells were fixed, and stained with propidium iodide using the Cycle Test Plus kit (Becton Dickinson). For cell death detection, cells were stained with Annexin-V-FITC and propidium iodide using the Apoptosis Detection Kit (BD Biosciences), according to the manufacturer's instructions. Cells were then analyzed by flow cytometry using a FACScalibur cytometer (BD Biosciences, Mountain View, Calif.) and FlowJo program (Tree Star, Inc., Ashland, Oreg.).
Compound I-1 promotes cell death by apoptosis. Because prolonged cell cycle arrest can cause induction of cell death, we next investigated the viability of prostate cancer cells treated with compound I-1. To begin, we used the trypan blue exclusion assay, which is based on the principle that live cells will exclude membrane-impermeable dyes such as trypan blue, whereas trypan blue will get inside the dead cells and stain them. […] To determine whether apoptosis (programmed cell death) is the cause of cell death induced by compound I-1, we examined the cells for biochemical and morphological markers of apoptosis. Cells undergoing apoptosis specifically translocate the membrane phospholipid phosphatidylserine (PS) from the inner face of the plasma membrane to the cell surface; therefore, apoptotic cells can be identified by the presence of PS on the cell surface. Detection of PS is achieved by staining with a fluorescent conjugate of Annexin V, a protein that has a high affinity for PS, followed by flow cytometry analysis. Cells are stained in parallel with propidium iodide (PI), which can only enter the cell when the plasma membrane is damaged. This allows early apoptotic cells (positive for PS, but negative for PI) to be distinguished from late apoptotic and necrotic cells (positive for both PS and PI).

SMILES: C[C@@H]1CC[C@H]2C3C(O[C@]4([C@]5(O)CC6(C)C(=O)OC5C[C@@]6(C)O)CC[C@@]31O4)[C@H]1O[C@]13CC=CC(=O)[C@]23C (some centres unmarked) [I-1]
- activated caspase-3 (DU145 cells [1]; 10 μM, 48 h and 72 h): detected
- cleavage of PARP-1 protein (additional band at 89 kDa) (DU145 cells [1]; 10 μM, 48 h and 72 h): detected
- Caspase-3 activation (DU145 cells [1]; time periods shorter than 48 h): could not be detected
- PARP-1 cleavage (DU145 cells [1]; time periods shorter than 48 h): could not be detected
- apoptotic population (DU145 cells [2]; 5 μM, 24 h): 5.2%
- apoptotic population (DU145 cells [2]; 5 μM, 48 h): 9.2%
- apoptotic population (DU145 cells [2]; 5 μM, 72 h): 11.5%
- apoptotic population (DU145 cells [2]; 10 μM, 24 h): 7.4%
- apoptotic cell population (DU145 cells [2]; 10 μM, 48 h): 32.3%
- apoptotic cell population (DU145 cells [2]; 10 μM, 72 h): 46.4%
- population of late apoptotic/necrotic cells (DU145 cells [2]; 10 μM, 72 h): 28.4%
